Here are results for 10 compounds from US11098041B2 (Merck Patent GmbH, priority 2014, dated 2021).

Each structure is given as a SMILES string.

What is called IC50 is the concentration that inhibits the measured activity by half.

Assay [1] addresses full-length human BTK (Homo sapiens (Human), UniProt Q06187). Description: Assay A: microfluidic off-chip mobility shift assay against BTK enzyme. In kind it is biochemical.
The subject of assay [2] is anti-IgM-induced expression of CD69 on CD19 positive cells (B cells) in human PBMCs. The assay can be described thus: Assay C: PBMC IC50 assay (anti-IgM-induced CD69 expression). In kind it is cell-based. The note with it: anti-IgM stimulation. A digest of the protocol:
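Freshly isolated human PBMCs (2.5×10^5/well) pretreated 1 h with compound, then stimulated overnight (~16-18 h) with goat F(ab′)2 anti-human IgM. CD69 on CD19+ B cells measured by flow cytometry; IC50 from percentage CD69+ B cells versus concentration.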

Assay [3] concerns the target LCK (Homo sapiens (Human), UniProt P06239). Description: Assay E: LCK biochemical assay (HotSpot Kinase Assay). The note with it: for inhibition at 1 µM: read-out: LCK % inhibition at 1 uM test concentration (Assay E). The method, then: Assay E: LCK Biochemical Assay
The standard protocol below describes the standard HotSpot Kinase Assay run by the Reaction Biology Corporation as a service.
The substrate (poly(EY) (Glu:Tyr (4:1)) and the cofactors were prepared in fresh Reaction Buffer (20 mM Hepes (pH 7.5), 10 mM MgCl2, 2 mM MnCl2, 1 mM EGTA, 0.02% Brij35, 0.02 mg/ml BSA, 0.1 mM Na3VO4, 2 mM DTT, 2% DMSO). To the substrate solution was then added the enzyme (LCK; recombinant human full-length (Genbank Accession #NP_005347); C-terminal His-tagged, expressed in insect cells), and the resulting solution was then gently mixed. The test compounds were dissolved in DMSO and then delivered into the kinase reaction mixture using acoustic liquid handling technology (Echo550; nanoliter range). The reaction mixture was incubated for 20 min at RT and then treated with ^33P-ATP to initiate the reaction. After 2 hours of incubation at RT, kinase activity was detected using Reaction Biology Corporation's proprietary P81 filter-binding method.

In assay [4] the target is BTK C481S (His-TEV-hsBTK(328-659)(C481S)) (Homo sapiens (Human), UniProt Q06187, C481S). The assay can be described thus: Assay B: microfluidic off-chip mobility shift assay against BTK C481S enzyme. It counts as biochemical. To be noted: BTK C481S mutant. A digest of the protocol: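 Substrate-to-phosphopeptide conversion quantified by microfluidic mobility shift with laser-induced fluorescence; IC50 and efficacy from log[inhibitor] vs. % activity.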
Chain of BTK C481S (His-TEV-hsBTK(328-659)(C481S)) (Q06187 328-659 C481S): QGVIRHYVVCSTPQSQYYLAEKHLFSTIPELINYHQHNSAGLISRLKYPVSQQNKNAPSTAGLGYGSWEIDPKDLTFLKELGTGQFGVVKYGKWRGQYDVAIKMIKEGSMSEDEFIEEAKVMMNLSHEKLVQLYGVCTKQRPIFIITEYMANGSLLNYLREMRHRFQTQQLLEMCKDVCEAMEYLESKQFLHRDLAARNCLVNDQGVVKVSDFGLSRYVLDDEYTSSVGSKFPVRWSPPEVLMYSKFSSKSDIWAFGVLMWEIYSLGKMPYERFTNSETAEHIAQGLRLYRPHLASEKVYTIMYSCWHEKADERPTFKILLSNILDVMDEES

In assay [5] the test system is IL-1β release by human THP-1 cells. The assay can be described thus: Assay D: THP-1 cells IL-1β release ELISA assay. It counts as cell-based. The note with it: PMA and LPS, BzATP stimulation. Here is the method:
Assay D: THP-1 Cells IL-1β release ELISA Assay
The assay measures IL-1β release by human THP-1 cells after treatment with PMA and LPS in response to BzATP stimulation in order to evaluate the potency of P2X7 inhibitors. THP-1 cells (2×10^5 cells/mL) in culture medium (RPMI1640 (Gibco, #22400-089)+10% HI-FBS (Gibco, #10082-147)+1% L-Glutamine (Gibco, #25030)+1% Pen/Strep (Gibco, #15140) complemented with 0.5 μM PMA (Sigma, #P8139) were incubated for 30 min at 37° C. At the end of the incubation time, the cells were titrated and washed gently in PBS. The cells were then re-suspended to a density of 1.5×10^5 cell/mL in culture medium complemented with 10 ng/mL LPS (Sigma, #L5293). The cell suspension was dispensed (40 μL/well) into a Corning 384-well plate. After 4 hr of incubation at 37° C., the cells were treated with 20 μL of test compounds at various concentrations. The plate was incubated for 30 min at 37° C. and then the cells were treated with 20 μL of 3.2 mM BzATP (Sigma. #B6396) (0.8 mM final concentration). The plate was incubated for an additional 30 min at 37° C., and then subjected to centrifugation (4 min, 1000 rpm). Supernatant (60 μL) from each well was transferred to a 384-matrix PP plate. The plate was then stored at 4° C. (overnight) or −20° C. for longer term storage. The next day, the […] were measured using a human […] ELISA Kit (R & D systems, catalog #DY201) and read using a SpectraMax Plus 384 Microplate Reader.
For orientation: In an ELISA, binding on a coated surface is turned into a signal by an enzyme label.

Chain of full-length human BTK (Q06187 whole entry): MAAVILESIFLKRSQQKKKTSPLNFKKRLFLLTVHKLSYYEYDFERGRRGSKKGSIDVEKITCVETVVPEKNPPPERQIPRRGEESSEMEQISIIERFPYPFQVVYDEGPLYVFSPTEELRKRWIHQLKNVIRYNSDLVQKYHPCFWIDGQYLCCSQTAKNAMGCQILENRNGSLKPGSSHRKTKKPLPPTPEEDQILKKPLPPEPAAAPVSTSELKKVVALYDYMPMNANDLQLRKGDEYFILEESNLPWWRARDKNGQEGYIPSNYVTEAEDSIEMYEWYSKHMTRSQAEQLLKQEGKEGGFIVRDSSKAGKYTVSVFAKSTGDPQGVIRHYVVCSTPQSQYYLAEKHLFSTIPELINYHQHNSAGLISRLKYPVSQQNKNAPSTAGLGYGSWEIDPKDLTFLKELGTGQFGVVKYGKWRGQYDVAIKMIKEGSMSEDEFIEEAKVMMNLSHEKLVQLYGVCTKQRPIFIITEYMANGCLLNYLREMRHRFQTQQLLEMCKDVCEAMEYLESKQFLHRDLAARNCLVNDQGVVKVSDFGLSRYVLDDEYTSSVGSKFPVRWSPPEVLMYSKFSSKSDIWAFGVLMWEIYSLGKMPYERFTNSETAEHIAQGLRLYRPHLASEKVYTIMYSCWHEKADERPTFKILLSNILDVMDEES
Chain of LCK (P06239 whole entry): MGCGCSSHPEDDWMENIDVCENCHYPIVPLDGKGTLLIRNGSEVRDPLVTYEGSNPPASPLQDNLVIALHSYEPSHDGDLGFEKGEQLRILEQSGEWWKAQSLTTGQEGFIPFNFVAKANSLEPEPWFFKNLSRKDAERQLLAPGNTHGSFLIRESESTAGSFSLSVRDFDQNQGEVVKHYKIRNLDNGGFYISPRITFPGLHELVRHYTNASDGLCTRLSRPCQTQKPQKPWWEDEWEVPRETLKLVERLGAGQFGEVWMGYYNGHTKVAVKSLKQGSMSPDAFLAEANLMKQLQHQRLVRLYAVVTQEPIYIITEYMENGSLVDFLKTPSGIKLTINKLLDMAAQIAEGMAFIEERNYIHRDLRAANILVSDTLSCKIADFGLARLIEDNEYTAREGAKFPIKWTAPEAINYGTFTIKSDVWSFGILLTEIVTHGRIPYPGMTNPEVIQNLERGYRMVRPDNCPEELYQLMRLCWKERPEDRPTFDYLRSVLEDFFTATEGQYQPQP

In the case of `CC(C)(C)c1nnc(C(=O)NCc2ccc(-c3ccnc4[nH]c(C5=CCOCC5)nc34)cc2F)o1` [Example 138, 5-(tert-butyl)-N-(4-(2-(3,6-dihydro-2H-pyran-4-yl)-3H-imidazo[4,5-b]pyridin-7-yl)-2-fluorobenzyl)-1,3,4-oxadiazole-2-carboxamide], the figures for the IC50 in assay [1] and in assay [2] were under 100 nM and 100 to 1000 nM, respectively. Besides, in assay [3], the inhibition at 1 µM came out at 40%.

As to `CC(C)(C)c1nc(C(=O)NCc2ccc(-c3ccnc4[nH]c(-c5ccc(N6CCC(O)CC6)cn5)nc34)cc2F)no1` [Example 84, 5-tert-butyl-N-[(2-fluoro-4-[2-[5-(4-hydroxypiperidin-1-yl)pyridin-2-yl]-3H-imidazo[4,5-b]pyridin-7-yl]phenyl)methyl]-1,2,4-oxadiazole-3-carboxamide], the IC50 was under 100 nM in assay [1], under 100 nM in assay [4], under 100 nM in assay [2] and 585 µM in assay [3].

With `CC(C)(C)c1nc(C(=O)NCc2ccc(-c3ccnc4[nH]c(-c5ccc(N6CCC(F)(F)CC6)cn5)nc34)cc2F)no1` [Example 82, 5-tert-Butyl-N-[(4-[2-[5-(4,4-difluoropiperidin-1-yl)pyridin-2-yl]-3H-imidazo[4,5-b]pyridin-7-yl]-2-fluorophenyl)methyl]-1,2,4-oxadiazole-3-carboxamide], the IC50 in assay [1] and in assay [2] was under 100 nM in each case. Moreover, in assay [3], the inhibition at 1 µM was 7.3%.

For the compound `CN(C)c1ccc(-c2nc3c(-c4ccc(CNC(=O)c5noc(C(C)(C)C)n5)c(F)c4)ccnc3[nH]2)nc1` [Example 146, 5-tert-Butyl-[1,2,4]oxadiazole-3-carboxylic acid 4-[2-(5-dimethylamino-pyridin-2-yl)-3H-imidazo[4,5-b]pyridin-7-yl]-2-fluoro-benzylamide], the IC50 in assay [1] is under 100 nM; in assay [2], 100 to 1000 nM. For the same compound, the inhibition at 1 µM in assay [3] is 11%.

As to `CC1CN(c2ccc(-c3nc4c(-c5ccc(CNC(=O)c6noc(C(C)(C)C)n6)c(F)c5)ccnc4[nH]3)nc2)CC(C)O1` (stereo not shown) [Example 81, 5-tert-Butyl-N-[(4-[2-[5-(2,6-dimethylmorpholin-4-yl)pyridin-2-yl]-3H-imidazo[4,5-b]pyridin-7-yl]-2-fluorophenyl)methyl]-1,2,4-oxadiazole-3-carboxamide], the IC50 in assay [1], in assay [4] and in assay [2] was under 100 nM each time. Besides, the inhibition at 1 µM in assay [3] came out at 15%.

Regarding `Cn1cc(-c2nc3c(-c4ccc(CN5Cc6cc(C(C)(C)C)sc6C5=O)c(F)c4)ccnc3[nH]2)cn1` [Example 92, 2-tert-Butyl-5-([2-fluoro-4-[2-(1-methyl-1H-pyrazol-4-yl)-3H-imidazo[4,5-b]pyridin-7-yl]phenyl]methyl)-4H,5H,6H-thieno[2,3-c]pyrrol-6-one], the IC50 is under 100 nM in assay [1], under 100 nM in assay [4] and 100 to 1000 nM in assay [2]. The inhibition at 1 µM in assay [3] worked out at 29%.

Turning to `Cn1cc(-c2nc3c(-c4ccc(CNC(=O)c5ccc(C(C)(C)C)cc5)c(C(F)(F)F)c4)ccnc3[nH]2)cn1` [Example 108, 4-tert-Butyl-N-{4-[2-(1-methyl-1H-pyrazol-4-yl)-3H-imidazo[4,5-b]pyridin-7-yl]-2-trifluoromethyl-benzyl}-benzamide], the IC50 in assay [1], in assay [4] and in assay [2] was under 100 nM each time. In addition, in assay [3], the inhibition at 1 µM came to 17%.

On to `CC(C)(C)c1ccc(C(=O)NCc2ccc(-c3ccnc4[nH]c(-c5ccc(C(=O)N6CCOCC6)cc5)nc34)cc2F)cc1` [Example 118, 4-tert-Butyl-N-(2-fluoro-4-{2-[4-(morpholine-4-carbonyl)-phenyl]-3H-imidazo[4,5-b]pyridin-7-yl}-benzyl)-benzamide], for which the IC50 in assay [1], in assay [4], in assay [2] and in assay [5] was under 100 nM each time.

Turning to `Cc1c(NC(=O)c2ccc(C(C)(C)C)cc2)cccc1-c1ccnc2[nH]c(-c3ccc(C(=O)O)cc3)nc12` [Example 153, 4-{7-[3-(4-tert-Butyl-benzoylamino)-2-methyl-phenyl]-3H-imidazo[4,5-b]pyridin-2-yl}-benzoic acid], the IC50 in assay [1] was under 100 nM; in assay [4], under 100 nM; in assay [2] it was over 5000 nM; in assay [5], 100 to 1000 nM.

Turning to `Cn1cc(-c2nc3c(-c4ccc(CNC(=O)c5cc(C(C)(C)C)no5)c(F)c4)ccnc3[nH]2)cn1` [Example 144, 3-(tert-butyl)-N-(2-fluoro-4-(2-(1-methyl-1H-pyrazol-4-yl)-3H-imidazo[4,5-b]pyridin-7-yl)benzyl)isoxazole-5-carboxamide], the inhibition at 1 µM in assay [3] amounted to 49%.
